Each structure is given as a SMILES string.

The test deals with T1, PsuACR1 (PsACR1).
T1 construct: 291 residues plus C-terminal His8 kept (299 residues in total)
The experiment in a line: UV-visible absorption titration, λmax red-shift fitted with Hill equation (n = […] fixed). The class given is binding, Proteomonas sulcata. The following applies: 10 mM MOPS pH 7.0, 25 °C; ionic strength kept at 1,000 mM with Na2SO4; initial (unphotolysed) state.

For the compound `Cl` [Cl^−], the Kd worked out at 5.5 ± 1.6 mM.
